The values below come from patent US20170267727A1, “Conjugates of pH Low Insertion Peptide and Monomethyl Auristatins in the Treatment of Solid Tumors” (Lehigh University, priority 2016, published 2017).

Data set [1] concerns HeLa cells. Put plainly: Cell proliferation with free drug, 72 hours incubation, MTT assay. The note with it: incubated with the cells for 72 hours; read-out: IC50 against HeLa cells. The data set is classed as cell-based, Human. The method, then: FIG. 6A and FIG. 6B show inhibition of HeLa (FIG. 6A) and MDA-MB-231 (FIG. 6B) cell proliferation by free MMAE modified with a succinimide nitrophenyl-based linker (MMAE+linker) and by unmodified MMAE. For each cell assay 3,000 cells/well were seeded, allowed to adhere overnight and incubated with either compound for 72 hours in complete medium at physiologic pH. Cell viability was determined with the MTT assay. All measurements were normalized to the 1% DMSO controls. Results are shown as mean±SD (n=6). Data were fitted with a sigmoidal dose response function in Prism for Mac (GraphPad Software, Inc.).
Cell Culture. Human cervical adenocarcinoma HeLa cells and human breast adenocarcinoma MDA-MB-231 cells were cultured in Dulbecco's modified Eagle's medium (DMEM supplemented with 10% FBS, 100 U/mL penicillin, and 0.1 mg/mL streptomycin in a humidified atmosphere of 5% CO2 at 37° C.

In data set [2] the test system is HeLa cells. The data set can be described thus: Anti-proliferation Assay (2 hours treatment at pH 7.4 or 5.0, 72 hours growth, MTT). The method, then:
(§1) FIG. 3A, FIG. 3C and FIG. 3E show HeLa cells treated with pHLIP(WT)-MMAE, pHLIP(D25E)-MMAE, and MMAE(linker), respectively. FIG. 3B, FIG. 3D and FIG. 3F show MDA-MB-231 cells treated with pHLIP(WT)-MMAE, pHLIP(D25E)-MMAE, and MMAE(linker), respectively. Black columns represent cells treated at pH 7.4 and cells treated at low pH are shown in grey. For each condition, 3,000 cells/well (96-well plate) were seeded, allowed to adhere overnight, treated for 2 hours, washed once with media and grown for 72 hour in complete medium at physiologic pH. Cell viability was assessed with the MTT assay. All measurements were normalized to the media control (0 μM, pH 7.4), as 100% cell viability. Results are shown as mean±SD (n=6-9).
HeLa cells treated with pHLIP(WT)-MMAF (FIG. 9A), pHLIP(D25E)-MMAF (FIG. 9B), pHLIP(P20G)-MMAF (FIG. 9C), and pHLIP(R11Q)-MMAF (FIG. 9D). Circles represent cells treated at pH 7.4 and squares represent cells treated at pH 5.0. Results are shown as the mean±SEM (n=6-9).
(§2) Anti-proliferation Assay. HeLa and MDA-MB-231 cells were seeded in 96-well plates at a density of 3,000 cells/well and incubated overnight. Before treatment, construct aliquots were solubilized in an appropriate volume of DMEM without FBS (pH 7.4)—so that upon pH adjustment the desired treatment concentration is obtained—and gently sonicated for 30-60 seconds using a bath sonicator (Branson Ultrasonics). After removal of cell media, this treatment solution was added to each well and incubated at 37° C. for 5-10 minutes. The pH was then adjusted to the desired value using a pre-established volume of DMEM, pH 2.0 buffered with citric acid (final volume=50 μL) and the plate was incubated at 37° C. for 2 hours. After treatment, the media was removed, cells were washed once with 100 μL of complete DMEM, and 100 μL of complete medium was added to each well before returning the plate to the incubator. Treatment solutions were collected and their pH values measured using a micro-combination pH probe (Microelectrodes, Inc.). […] Cell viability was determined after 72 hours using the colorimetric MTT assay. Briefly, 10 μL of a 5 mg/mL MTT stock solution was added to the treated cells and incubated for 2 hours at 37° C. The resulting formazan crystals were solubilized in 200 μL DMSO and the absorbance measured at 580 nm using an Infinite 200 PRO microplate reader (Tecan). Cell viability was calculated against control cells treated with media at physiologic pH.
(§3) Inhibition of Cell Proliferation. The ability of pHLIP to move MMAE across the cell membrane and to inhibit cancer cell proliferation in concentration and pH-dependent manners was evaluated. Cell treatments for both pHLIP(WT)-MMAE and pHLIP(D25E)-MMAE constructs were carried out with conjugate concentrations ranging from 1.25 to 10 μM at either pH 7.4 or 5.0. After a 2-hour incubation at 37° C., the treatment media was replaced by fresh media, and cells were grown for an additional 72 hours at normal pH before assessing cell viability using the MTT assay. […] This treatment protocol is quite stringent when compared to the typical multi-days exposure treatments used with free drugs (FIG. 6A and FIG. 6B).

The subject of another data set is MDA-MB-231 cells. Described as above. The method, then:
as §1, §2, §3

The conditions of data set [3]: cited from earlier work.
For data set [4] the following is noted: cited from earlier work. The source holds these as a separate data set.
The conditions of data set [5]: cited from earlier work. This is another data set of the same source.
For a further data set, the system named is HeLa tumors. The note with it: end of the three week study, n=8. The method, then:
HeLa (ATCC#CCL-2) were injected subcutaneously into the inguinal space of female Ncr nu/nu mice. Tumors were allowed to develop until they were approximately 75 mm^3 in size. […] On days 1, 3, 5, and 8, animals were injected intravenously with 200 microliters of either pHLIP-MMAF (20 microM in PBS+1% DMSO) or vehicle control (PBS+1% DMSO). Tumors were measured with calipers on routine basis for approximately 3 weeks and tumor volumes calculated with the formula: length×width×(height×0.5). Animals were euthanized when tumors reached a volume of 500 mm^3. FIG. 10A depicts tumor growth as a function of initial tumor volume. FIG. 10B depicts tumor volume. FIG. 10C depicts overall survival.
HeLa (ATCC#: CCL-2) were injected subcutaneously (s.c.) into the inguinal space of female Ncr nu/nu mice. Tumors were allowed to develop until they were approximately 75 mm^3 in size. […] On days 1, 3, 5, and 8 animals were injected intravenously with 200 microliters of either pHLIP-MMAF (20 microM in PBS+1% DMSO) or vehicle control (PBS+1% DMSO). Tumors were measured with calipers on routine basis for approximately 3 weeks and tumor volumes calculated with the formula Length×Width×(Height×0.5). […] A tumor volume of 500 mm^3 was prospectively set as the stopping point for this study.

A short description of data set [6]: Toxicity Studies (CBC and comprehensive metabolic panel). The conditions noted are these: four 1 mg/kg injections on days 1, 3, 5 and 7; monitored 2 weeks after final injection. The data set is classed as in vivo. As for the experimental part:
Four one milligram/kilogram (1 mg/kg) injections of pHLIP(WT)-MMAF are given to subjects on days 1, 3, 5 and 7. Overall health, liver and kidney function, and electrolytes are monitored using a complete blood count (CBC) and comprehensive metabolic panel, for a period of 2 weeks after the final injection.

Another data set relates to A431 tumors. The conditions noted are these: i.p., 1 mg/kg.
Setting [7] is: 2.5 μL (so in the source), low pH.

“Also recorded” adds a separate entry of the source. Positions of bridges follow the written chain, without caps; N, C: chain ends. Non-standard residues stand in square brackets, D forms with d. Residues, ends and D or L forms follow the SMILES beside them. Chains are numbered I, II in the order given. No end group written: not given here. *: point of attachment. Dolaproine = CO[C@@H]([C@@H]1CCCN1)[C@@H](C)C(=O)O; Dil = CC[C@H](C)[C@H](NC)[C@@H](CC(=O)O)OC; X1 = C[C@@H](N*)[C@@H](O)c1ccccc1; NMeV = CN[C@H](C(=O)O)C(C)C; Mpa = O=C(O)CCS

Turning to `CC[C@H](C)[C@@H]([C@@H](CC(=O)N1CCC[C@H]1[C@H](OC)[C@@H](C)C(=O)N[C@H](C)[C@@H](O)c1ccccc1)OC)N(C)C(=O)[C@@H](NC(=O)[C@@H](NC)C(C)C)C(C)C` [MMAE, monomethyl auristatin E, reference compound] (H-[NMeV]V[Dil][Dolaproine]-X1), the IC50 is approximately 4 nM in the data set on HeLa cells [1] and 0.1 to 2 nM in data set [4]. In addition, the cytotoxicity in the data set with HeLa cells [2] (setting [7]) is 20-30%; with HeLa cells [2] (physiological pH, 5 μM), “about 70%”; with MDA-MB-231 cells (setting [7]), 20-30%. Moreover, in data set [3], the “Log P o/w” value is 2.2.
Regarding `CC[C@H](C)[C@@H]([C@@H](CC(=O)N1CCC[C@H]1[C@H](OC)[C@@H](C)C(=O)N[C@@H](Cc1ccccc1)c1nccs1)OC)N(C)C(=O)[C@@H](NC(=O)[C@H](C(C)C)N(C)C)C(C)C` [Dolastatin 10], the “Log P o/w” value in data set [3] was 3.4. In addition, in data set [4], the half-maximal inhibitory concentration (IC50) is 0.1 nM.
For the compound “pHLIP(D25E) (AAEQNPIYWARYADWLFTTPLLLLELALLVDADEGTCG-NH2) [reference compound]”, the “effect of peptide alone on cell viability” value is listed as “not cytotoxic; also recorded: neither pHLIP(WT) or pHLIP(D25E) peptides have any harmful effects” in the data set on HeLa cells [2] (10 μM, pH 7.4 or pH 5.0) and “not cytotoxic; also recorded: neither pHLIP(WT) or pHLIP(D25E) peptides have any harmful effects” in the data set with MDA-MB-231 cells (10 μM, pH 7.4 or pH 5.0). Also, in [5], the pKa of insertion was 6.49.
On to `CC[C@H](C)[C@@H]([C@@H](CC(=O)N1CCC[C@H]1[C@H](OC)[C@@H](C)C(=O)N[C@@H](Cc1ccccc1)C(=O)O)OC)N(C)C(=O)[C@@H](NC(=O)[C@@H](NC)C(C)C)C(C)C` [MMAF, monomethyl auristatin F] (H-[NMeV]V[Dil][Dolaproine]F-OH), for which the “Log P o/w” value in data set [3] was 0.7. Further, in [4], the IC50 is 105 to 250 nM.
For the compound amanitin, the pKa of insertion in data set [5] is given as 5.9.
In the case of “I: AAEQNPIYWARYADWLFTTPLLLLDLALLVDADEGTCG-NH2 / II: [Mpa][NMeV]V[Dil][Dolaproine]F (disulfide I:37-II:1; C-terminus assumed) [pHLIP(WT)-MMAF]”, the “improvement over treatments with pHLIP(WT)-MMAE” value in the data set with HeLa cells [2] is “ca. 100 fold”. Further, the cell killing result with HeLa cells [2] (pH 7.4 versus pH 5.0) was “clear pH-selective and concentration-dependent killing”. Further, the “animals removed for tumor size exceeding 500 mm^3” value with HeLa tumors is listed as “only a single animal”. The “overall health, liver and kidney function, electrolytes” value in data set [6] was “Clinically significant differences in overall health, liver and kidney function, and electrolytes were not observed”. In addition, the “effect on A431 tumors” value in the data set with A431 tumors is given as “Analogous results were obtained”.
On to `CC[C@H](C)[C@@H]([C@@H](CC(=O)N1CCC[C@H]1[C@H](OC)[C@@H](C)C(=O)N[C@@H](Cc1ccccc1)C(=O)OC)OC)N(C)C(=O)[C@@H](NC(=O)[C@@H](NC)C(C)C)C(C)C` [MMAF-Ome, monomethyl auristatin F-OMe] (H-[NMeV]V[Dil][Dolaproine]F-OMe), for which, in data set [3], the “Log P o/w” value was 2.8. For the same compound, the IC50 in data set [4] is 0.001 nM.
